In one test the test system is HCT 116 cells. In words: Cell proliferation assay (HCT 116), Cell-titer Glo. Type of test: cell-based. The following applies: Homo sapiens, 120 h incubation. The method, then:
(§1) The HCT 116 cells were paved in a 96-well plate at 1200 cells, 160 μL/well. After incubating overnight, the compound solutions of gradient concentration was prepared, and 40 μL of DMSO solution of the test compound of each concentration was added to the cells of each well. The final concentration of the compound was 30000, 10000, 3333.3, 1111.1, 370.4, 123.5, 41.2, 13.7, 4.6, 0 nM (the final concentration of DMSO was 0.5%). 5% CO2 was incubated for 120 h at 37° C. 50 μL of Cell-titer Glo working solution was added to each well, shaked and mixed, and incubated at room temperature for 10 minutes. The multi-functional microplate reader read the luminescence value, and converted the luminescence value reading into inhibition percentage. Inhibition percentage=(maximum value−reading)/(maximum value−minimum value)*100.
The “maximum value” was the DMSO control, the “minimum value” indicated the cell-free control group.
(§2) Graphpad Prism software was used to perform curve fitting and obtain IC50 value.

The next test has as its system COLO205 cells. As to the kind of experiment: Cell proliferation assay (COLO205), Cell-titer Glo. It is filed as cell-based. To be noted: Homo sapiens, COLO 205, 120 h incubation. As to the method: as §1, with “COLO205” for “The HCT 116”, “spread into” for “paved in”, “135 μL/well at 2000 cells.” for “1200 cells, 160 μL/well.”, “overnight,” for “overnight, the”, “added 15” for “40”, “concentration” for “concentration was added”
The “maximum value” was the DMSO control, the “minimum value” indicates the cell-free control group.
as §2

The next test addresses ERK2 (Homo sapiens, UniProt P28482). As to the kind of experiment: Kinase assay (Caliper, FAM-labeled peptide), ERK2. It is filed as biochemical. The gist of the method:
(§3)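 Kinase preincubated 10 min at room temperature with serially diluted compound before FAM-labeled peptide plus ATP added; reaction run at 28 °C, then stopped. Substrate conversion read by Caliper mobility shift, normalized to DMSO and low controls, curve-fitted for IC50.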

A further test has as its target ERK1 (Homo sapiens, UniProt P27361). As to the kind of experiment: Kinase assay (Caliper, FAM-labeled peptide), ERK1. Type of test: biochemical. The gist of the method:
as §3

Sequence of ERK2 (P28482 whole entry): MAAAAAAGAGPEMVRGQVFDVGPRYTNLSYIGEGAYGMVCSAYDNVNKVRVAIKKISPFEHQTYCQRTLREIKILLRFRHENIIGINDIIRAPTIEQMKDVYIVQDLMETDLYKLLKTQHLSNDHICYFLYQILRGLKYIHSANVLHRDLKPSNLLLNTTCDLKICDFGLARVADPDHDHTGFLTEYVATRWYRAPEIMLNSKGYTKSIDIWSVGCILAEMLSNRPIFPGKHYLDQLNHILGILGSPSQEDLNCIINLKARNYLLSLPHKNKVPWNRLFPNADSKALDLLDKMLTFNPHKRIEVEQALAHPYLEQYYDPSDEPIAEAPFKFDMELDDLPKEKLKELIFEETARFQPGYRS
Sequence of ERK1 (P27361 whole entry): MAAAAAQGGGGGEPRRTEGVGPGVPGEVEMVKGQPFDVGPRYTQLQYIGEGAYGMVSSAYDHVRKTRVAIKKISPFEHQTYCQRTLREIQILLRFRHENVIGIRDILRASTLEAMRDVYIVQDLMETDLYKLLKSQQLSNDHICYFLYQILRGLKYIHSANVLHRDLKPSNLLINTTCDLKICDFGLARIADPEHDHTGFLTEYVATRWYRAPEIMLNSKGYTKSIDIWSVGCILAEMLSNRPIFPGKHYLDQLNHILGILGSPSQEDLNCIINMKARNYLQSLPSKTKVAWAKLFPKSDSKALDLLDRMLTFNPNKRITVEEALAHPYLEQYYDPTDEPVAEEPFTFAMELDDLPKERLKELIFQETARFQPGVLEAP

By IC50 is commonly meant the midpoint of a concentration-inhibition curve. A higher IC50 goes with a need for much substance. On to `Cn1nccc1Nc1cc(-c2cc3n(c2)CCN(Cc2ccc(F)cc2CO)C3=O)c(Cl)cn1` [Example 149, 7-(5-chloro-2-((1-methyl-1h-pyrazole-5-yl)amino)pyridine-4-yl)-2-(4-fluoro-2-(hydroxymethyl)benzyl)-3,4-dihydropyrrolo[1,2-a] pyrazine-1(2H)-one], for which it took 21.2 nM to reach half-maximal inhibition with HCT 116 cells (IC50). Turning to `COC[C@H]1Cn2cc(-c3nc(Nc4ccnn4C)ncc3C)nc2C(=O)N1Cc1ccc(F)c(F)c1` [AZD0364, reference compound], the results for the IC50 in the test on COLO205 cells and in the test with HCT 116 cells were 72.4 nM and 83 nM, respectively. In the case of `Cn1nccc1Nc1cc(-c2cc3n(c2)CCN(Cc2cccc(F)c2CO)C3=O)c(Cl)cn1` [Example 150, 7-(5-chloro-2-((1-methyl-1h-pyrazole-5-yl)amino)pyridine-4-yl)-2-(3-fluoro-2-(hydroxymethyl)benzyl)-3,4-dihydropyrrolo[1,2-a] pyrazine-1(2H)-one], the figures for the IC50 in the test on COLO205 cells and in the test with HCT 116 cells were 17.8 nM and 9.5 nM, respectively.

With `COC[C@H]1Cn2cc(-c3cc(Nc4ccnn4C)ncc3Cl)cc2C(=O)N1Cc1cccc(F)c1CO` [Example 98, (R)-7-(5-chloro-2-((1-methyl-1h-pyrazole-5-yl)amino)pyridine-4-yl)-2-(3-fluoro-2-(hydroxymethyl)benzyl)-3-(methoxymethyl)-3,4-dihydropyrrolo[1,2-a] pyrazine-1(2H)-one], the half-inhibitory concentration (IC50) in the test on COLO205 cells stood at 10.7 nM; in the test with HCT 116 cells it was 9 nM. Take `COC[C@H]1Cn2cc(-c3cc(Nc4ccnn4C)ncc3Cl)cc2C(=O)N1Cc1cc(F)c(F)cc1CO` [Example 95, (R)-7-(5-chloro-2-((1-methyl-1h-pyrazole-5-yl)amino)pyridine-4-yl)-2-(4,5-difluoro-2-(hydroxymethyl)benzyl)-3-(methoxymethyl)-3,4-dihydropyrrolo[1,2-a] pyrazine-1(2H)-one]: the IC50 on ERK2 was found to be 0.9 nM; in the test with COLO205 cells, 6.9 nM; with HCT 116 cells it was 6.9 nM. Turning to `COC[C@H]1Cn2cc(-c3cc(Nc4ccnn4C)ncc3Cl)cc2C(=O)N1Cc1ccc(F)cc1CO` [Example 99, (R)-7-(5-chloro-2-((1-methyl-1h-pyrazole-5-yl)amino)pyridine-4-yl)-2-(4-fluoro-2-(hydroxymethyl)benzyl)-3-(methoxymethyl)-3,4-dihydropyrrolo[1,2-a] pyrazine-1(2H)-one], the figures for the IC50 in the test with COLO205 cells and in the test on HCT 116 cells were 21.7 nM and 18 nM, respectively. For `COC[C@H]1Cn2cc(-c3cc(Nc4ccnn4C)ncc3C(F)(F)F)cc2C(=O)N1Cc1cc(F)ccc1CO` [Example 100, (R)-2-(5-fluoro-2-(hydroxymethyl)benzyl)-3-(methoxymethyl)-7-(2-((1-methyl-1h-pyrazole-5-yl)amino)-5-(trifluoromethyl)pyridin-4-yl)-3,4-dihydropyrrolo [1,2-a]pyrazine-1(2H)-one], in that order: 19 nM and 19.9 nM. As for `COC[C@H]1Cn2cc(-c3cc(Nc4conc4C)ncc3Cl)cc2C(=O)N1Cc1cc(F)ccc1CO` [Example 83, (R)-7-(5-chloro-2-((3-methylisoxazole-4-yl)amino)pyridine-4-yl)-2-(5-fluoro-2-(hydroxymethyl)benzyl)-3-(methoxymethyl)-3,4-dihydropyrrolo[1,2-a] pyrazine-1(2H)-one], in the test with HCT 116 cells, the IC50 was 23 nM. On the same count and under the same terms, for `COC[C@H]1Cn2cc(-c3cc(Nc4ccnn4C(F)F)ncc3Cl)cc2C(=O)N1Cc1cc(F)ccc1CO` [Example 54, (R)-7-(5-chloro-2-((1-(difluoromethyl)-1H-pyrazol-5-yl)amino)pyridin-4-yl)-2-(5-fluoro-2-(hydroxymethyl)benzyl)-3-(methoxymethyl)-3,4-dihydropyrrolo[1,2-a]pyrazine-1(2H)-ketone] the value was 16.2 nM. As to `COC[C@H]1Cn2cc(-c3nc(NC4CCOCC4)ncc3Cl)cc2C(=O)N1Cc1cc(F)ccc1CO` [Example 130, (R)-7-(5-chloro-2-((tetrahydro-2h-pyran-4-yl)amino)pyrimidin-4-yl)-2-(5-fluoro-2-(hydroxymethyl)benzyl)-3-(methoxymethyl)-3.4-dihydropyrrolo[1,2-a] pyrazine-1(2H)-one], the results for the IC50 with COLO205 cells and with HCT 116 cells were 20.4 nM and 5.3 nM, respectively. The like results for `COC[C@H]1Cn2cc(-c3cc(Nc4ccnn4C)ncc3C)cc2C(=O)N1Cc1cc(F)ccc1CO` [Example 102, (R)-2-(5-fluoro-2-(hydroxymethyl)benzyl)-3-(methoxymethyl)-7-(5-methyl-2-((1-methyl-1h-pyrazole-5-yl)amino)pyridine-4-yl)-3,4-dihydropyrrolo[1,2-a] pyrazine-1(2H)-one] were, in that order, 6.4 nM and 11.6 nM. Consider `COC[C@H]1Cn2cc(-c3nc(Nc4ccnn4C)ncc3C(F)(F)F)cc2C(=O)N1Cc1cc(F)ccc1CO` [Example 163, (R)-2-(5-fluoro-2-(hydroxymethyl)benzyl)-3-(methoxymethyl)-7-(2-((1-methyl-1h-pyrazole-5-yl)amino)-5-(trifluoromethyl)pyrimidin-4-yl)-3,4-dihydropyrrolo[1,2-a] pyrazine-1(2H)-one], for which the IC50 was determined as 0.62 nM against ERK2, 15.4 nM with COLO205 cells and 18.8 nM in the test with HCT 116 cells. `CCn1nccc1Nc1cc(-c2cc3n(c2)C[C@H](COC)N(Cc2cc(F)ccc2CO)C3=O)c(Cl)cn1` [Example 52, (R)-7-(5-chloro-2-((1-ethyl-1H-pyrazol-5-yl)amino)pyridin-4-yl)-2-(5-fluoro-2-(hydroxymethyl)benzyl)-3-(methoxymethyl)-3,4-dihydropyrrolo[1,2-a]pyrazine-1(2H)-one]: the IC50 is 13.6 nM in the test on COLO205 cells and 10.7 nM in the test with HCT 116 cells. As for `COC[C@H]1Cn2cc(-c3cc(N[C@H]4CC[C@H](O)CC4)ncc3Cl)cc2C(=O)N1Cc1cc(F)ccc1CO` [Example 71, (R)-7-(5-chloro-2-(((1R,4R)-4-hydroxycyclohexyl)amino)pyridine-4-yl)-2-(5-fluoro-2-(hydroxymethyl)benzyl)-3-(methoxymethyl)-3,4-dihydropyrrolo[1,2-a] pyrazine-1(2H)-one], the values for the IC50 on ERK1, at ERK2 and in the test on HCT 116 cells were 1.1 nM, 1.4 nM and 27 nM, respectively.

Consider `Cn1nccc1Nc1cc(-c2cc3n(c2)CCN(Cc2cccc(F)c2)C3=O)c(Cl)cn1` [Example D9, 7-(5-chloro-2-((1-methyl-1h-pyrazole-5-yl)amino)pyridine-4-yl)-2-(3-fluorobenzyl)-3,4-dihydropyrrolo[1,2-a] pyrazine-1(2H)-one, reference compound], for which inhibition with HCT 116 cells was half-maximal at 53.6 nM (IC50). `Cn1nccc1Nc1cc(-c2cc3n(c2)CCN(Cc2cc(F)ccc2CO)C3=O)c(C(F)(F)F)cn1` [Example 161, (5-fluoro-2-(hydroxylmethyl)benzyl)-7-(2-((1-methyl-1h-pyrazole-5-yl)amino)-5-(trifluoromethyl)pyridin-4-yl)-3,4-dihydropyrrolo [1,2-a]pyrazine-1(2H)-one] registered an IC50 in the test on HCT 116 cells of 24.6 nM.

On to `Cn1nccc1Nc1cc(-c2cc3n(c2)CCN(Cc2cc(F)cc(F)c2)C3=O)c(Cl)cn1` [Example D10, 7-(5-chloro-2-((1-methyl-1h-pyrazole-5-yl)amino)pyridine-4-yl)-2-(3,5-difluorobenzyl)-3,4-dihydropyrrolo[1,2-a] pyrazine-1(2H)-one, reference compound], for which, in the test on HCT 116 cells, the IC50 stood at 52.3 nM.

The record behind these values is patent US11466013B2 (Betta Pharmaceuticals Co., LTD, priority 2018, dated 2022).
